Entries after “also recorded” stand apart in the source; their conditions may differ.

Consider 13 compounds from article PMC8186431, “Synthesis and biological evaluation of thiazolidinedione derivatives with high ligand efficiency to P. aeruginosa PhzS” (Journal of Enzyme Inhibition and Medicinal Chemistry, 2021).

The target of one series is T1, PaPhzS (Pseudomonas aeruginosa, UniProt Q9HWG9).
T1 construct: implied by pET28a and the HisTrap purification; made in house; host or cells: E. coli Rosetta (DE3)
The experiment in a line: Compounds' affinity calculation by TSA (fraction of unfolded protein, DSFit software). Type of series: binding, P. aeruginosa. The following applies: for BEI (DSFit software): BEI: (pKd/MW)×1000, from DSFit Kd; for Kd: Kd (DSFit software), TSA, fraction of unfolded PaPhzS at 43 °C, PaPhzS 5 µM, ligand 3.12 to 200 µM; for LE (DSFit software): LE: 1.4*pKd/HA, from DSFit Kd. The protocol: The effect of ligand’s concentration (ranging from 3.12 to 200 µM) over the PaPhzS Tm (5 µM final concentration) was evaluated using the same parameters described in section (2.2.2). […] The ΔCp value (0.69) required for this calculation was predicted by hydrophobic surface area-based method available on http://www.ibi.vu.nl/programs/bicepwww/. Briefly, the heat capacity (C) was calculated at two temperatures: 25 °C (before PhzS unfolding [T1]) and 50 °C (after PzhS unfolding [T2]) using Equation (2). C = 332.66 ± 18.9 X (273.15 − T) + 52089 ± 1353 (2) [drawing 2] where T stands for temperature in Kelvin. Therefore T1 = 298.15 K, T2 = 323.15 K.
Bai and co-workers devised an elegant workaround that limitation, which relies on the percentage of unfolded protein at a fixed temperature. […] According to Bai and co-workers (2019) Kd values close to the protein concentration (5 µM) or lower should be taken with scepticism. […] As these Kd values were obtained at a temperature higher than the physiologic one, we decided to employ an orthogonal assay to evaluate the compounds’ affinity. In order to achieve this goal, PaPhzS was labelled with FITC and the effects of different concentration of each inhibitor on the covalently modified PaPhzS was monitored at 25 °C (Figure 5).

A further series concerns the target PhzS from P. aeruginosa. Details: method as in PMID 32772556. The following applies: Kd value calculated by microscale thermophoresis; cited from earlier work.
Series [1] deals with T2, PhzS from P. aeruginosa (PaPhzS) (Pseudomonas aeruginosa, UniProt Q9HWG9).
T2 construct: implied by pET28a and the HisTrap purification; made in house; host or cells: E. coli Rosetta (DE3)
The experiment in a line: Thermal shift assay (TSA) screening of thiazolidinedione derivatives. It counts as binding. The following applies: different concentrations (3.12–100.0 µM). The protocol: TSA assays were performed on Applied Biosystems 7500 RT-PCR (Applied Biosystems, Foster City, CA USA), fitted with custom filter sets. All assays were carried out in triplicate on a 96-well PCR plate (PCR plates 96 well BioRad®), manually sealed with transparent capping strips (Flatcap strips BioRad®). The plates were centrifuged for 2 min, 2000 rpm, at 25 °C and then the fluorescence of SYPRO^TM orange (S6650) was monitored (excitation wavelength= 492 nm and emission wavelength= 610 nm), while the plate was heated from 25 to 85 °C, in increments of 1 °C per minute.
The TSA conditions employed in this work were previously optimised. Briefly, 5 µl of PaPhzS (5 µM final concentration), 1 µl of SYPRO^TM orange (5X), 13 µl of assay buffer (50 mM potassium phosphate, 300 mM NaCl, pH 8), and 1 µl DMSO (5% v/v), as a negative control, or the putative inhibitor (diluted in DMSO) were added to each well. All experiments were carried out in triplicate
Raw fluorescence data were recorded within the Applied Biosystems 7500 Software v2.0, and then exported to NAMI[52] for Tm calculation by the first-derivative method.

Another series has as its target T3, PaPhzS-FITC (Pseudomonas aeruginosa, UniProt Q9HWG9).
T3 construct: implied by pET28a and the HisTrap purification); FITC (chemical covalent label, not a peptide; made in house; host or cells: E. coli Rosetta (DE3)
The series can be described thus: Affinity to covalently modified PaPhzS (FITC fluorescence). The following applies: for BEI (FITC): BEI: (pKd/MW)×1000, from PaPhzS-FITC Kd; for LE (FITC): LE: 1.4*pKd/HA, from PaPhzS-FITC Kd; for affinity to PaPhzS, in words: PaPhzS-FITC assay. It counts as binding, P. aeruginosa. The protocol: PaPhzS (2 mg/mL) was incubated with fluorescein-5-isothiocyanate (FITC) dye (6 mg/mL) containing 50 mM HEPES (pH 8.0) for 2 h, at 25 °C. Then, the solution was loaded on a Hi-Trap HP desalting column (GE Healthcare), previously equilibrated with 50 mM HEPES buffer (pH 8) and 2 CV of the same buffer were injected. The absorbance of the collected fractions was monitored at 280 nm and 490 nm and those with a molar ratio ranging from 0.3 and 1.0[55] were employed for the Kd calculation experiments, as follows: The fluorescence of PaPhzS-FITC, at 25 °C, using in a real-time thermocycler (AppliedBiosystem7500) equipped with the FAN filter (excitation 498 nm and emission 530 nm wavelengths) for 10 min in the presence of different concentrations of each compound (3.12–100.0 µM). The Raw fluorescence data, recorded within the Applied Biosystems 7500 Software v2.0, was employed for non-linear regression analysis (three parameters) (Equation 1), as available in GraphPad Prism 8.0 software (GraphPadV® Software, San Diego, CA, USA, www.graphpad.com). All experiments were carried out in triplicate using 96-well PCR plate (PCR plates 96 well BioRad®), manually sealed with transparent capping strips (Flatcap strips BioRad®).

T1 sequence (Q9HWG9 whole entry): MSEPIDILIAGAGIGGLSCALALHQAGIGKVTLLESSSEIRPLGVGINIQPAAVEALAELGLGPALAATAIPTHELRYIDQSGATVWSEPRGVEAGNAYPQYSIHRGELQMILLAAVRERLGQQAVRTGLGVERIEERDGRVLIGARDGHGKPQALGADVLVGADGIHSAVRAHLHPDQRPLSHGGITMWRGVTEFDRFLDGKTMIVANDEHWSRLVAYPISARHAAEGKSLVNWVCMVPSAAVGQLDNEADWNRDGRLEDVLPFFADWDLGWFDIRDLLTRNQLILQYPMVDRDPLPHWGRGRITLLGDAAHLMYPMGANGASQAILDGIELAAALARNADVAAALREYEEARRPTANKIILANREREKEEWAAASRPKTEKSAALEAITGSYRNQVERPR
T2 sequence (Q9HWG9 whole entry): as above
T3 sequence (Q9HWG9 whole entry): as above

What is called melting point is the temperature, or range, at which the solid turns liquid. For the compound `O=C1S/C(=C\c2cc(Cl)ccc2O)C(=O)N1Cc1cccc(Cl)c1`, the melting point was 201 to 202 °C.
`Cc1ccc(/C=C2\SC(=O)NC2=O)cc1Br` returned a melting point of 196 to 197 °C.
The same measure, in the same setting: in the case of `O=C1NC(=O)/C(=C/c2cncc3ccccc23)S1` it was 118 to 119.5 °C; in that of `O=C1NC(=O)/C(=C/c2c(O)ccc3ccccc23)S1`, 194 to 195 °C; in that of `COc1ccc(C(=O)CN2C(=O)S/C(=C\c3ccc(C)cc3)C2=O)cc1`, 174 to 176 °C.
A word on the Kd: it is the constant that tells how readily two partners part at equilibrium. As for `O=C1NC(=O)/C(=C\c2ccc(OCc3nc4ccccc4c(=O)n3-c3ccccc3)cc2)S1` [A, (E)-5–(4-((4-oxo-3-phenyl-3,4-dihydroquinazolin-2-yl)methoxy)benzylidene)thiazolidine-2,4-dione, reference compound], at PaPhzS, the “BEI (DSFit software)” value was 11.0, the Kd is 9.3 µM and the “LE (DSFit software)” value is 0.21. Moreover, the Kd on PhzS from P. aeruginosa is 18 µM.
Regarding `O=C1S/C(=C\c2c(Cl)cccc2Cl)C(=O)N1Cc1cccc(Cl)c1` [Compound 3, (Z)-3–(3-chlorobenzyl)-5–(2,6-dichlorobenzylidene)thiazolidine-2,4-dione], the melting point was in the range of 110 to 111 °C.
As for `O=C1NC(=O)C(=Cc2cc(Cl)cc(Br)c2O)S1` [Compound 15], in series [1], the “concentration-response profile of ΔTm” value is “clear concentration-response profile”. Besides, at PaPhzS, the “BEI (DSFit software)” value is on record as 13.3, the Kd was 37.2 µM and the “LE (DSFit software)” value is reported as 0.36. Also, at PaPhzS-FITC, the Kd came out at 166 ± 0.5 µM; the “BEI (FITC)” value came to 11.4; the “LE (FITC)” value stood at 0.31; the “affinity to PaPhzS, in words” value is given as “low affinity; also recorded: reduced affinity”.
Consider `O=C1NC(=O)/C(=C/c2cc(Cl)ccc2O)S1` [Compound 16], for which the “concentration-response profile of ΔTm” value in series [1] is recorded as “clear concentration-response profile”. At PaPhzS, the “BEI (DSFit software)” value is recorded as 21.0, the Kd was 4.2 µM and the “LE (DSFit software)” value was 0.47. At PaPhzS-FITC, the equilibrium dissociation constant (Kd) was found to be 6.18 ± 0.2 µM; the “BEI (FITC)” value is recorded as 20.42; the “affinity to PaPhzS, in words” value is “low micromolar ligands”. Besides, at PaPhzS-FITC (listed as Mol 16), the “BEI (FITC)” value was determined as 20.4 and the “LE (FITC)” value came out at 0.45.
`COc1ccc(/C=C2\SC(=O)NC2=O)c(Br)c1O` [Compound 20, (Z) 5–(2-bromo-3-hydroxy-4-methoxybenzylidene)thiazolidine-2,4-dione] showed a melting point of 245 °C. Further, in series [1], the “concentration-response profile of ΔTm” value is on record as “clear concentration-response profile”. In addition, at PaPhzS, the “BEI (DSFit software)” value is given as 15.0, the Kd is 10.5 µM and the “LE (DSFit software)” value is 0.38. For the same compound, at PaPhzS-FITC, the Kd was found to be 3.3 ± 0.3 µM and the “affinity to PaPhzS, in words” value is on record as “low micromolar ligands”. On PaPhzS-FITC (listed as Mol 20), the “BEI (FITC)” value was 16.6 and the “LE (FITC)” value turned out to be 0.42.
In the case of `COc1cc(OC)c(OC)cc1/C=C1\SC(=O)NC1=O` [Compound 28, (Z-5–(2,4,5-trimethoxybenzylidene)thiazolidine-2,4-dione)], the melting point was 158 to 160 °C. The “concentration-response profile of ΔTm” value in series [1] is on record as “clear concentration-response profile”.
Take `COCn1cc(/C=C2\SC(=O)NC2=O)c2ccccc21` [Compound 33]: in series [1], the “concentration-response profile of ΔTm” value was “clear concentration-response profile”. Also, on PaPhzS, the “BEI (DSFit software)” value was 14.9, the Kd is 50 µM and the “LE (DSFit software)” value is listed as 0.30. Further, at PaPhzS-FITC, the Kd came out at 84.2 ± 0.2 µM; the “BEI (FITC)” value is on record as 14.1; the “LE (FITC)” value is on record as 0.28; the “affinity to PaPhzS, in words” value was “low affinity”.
Regarding `O=C1NC(=O)/C(=C/C=C/c2ccccc2[N+](=O)[O-])S1` [Compound 38, (Z)-5-((E)-3–(2-nitrophenyl)allylidene)thiazolidine-2,4-dione], the melting point lay within 119 to 120 °C. Further, in series [1], the “concentration-response profile of ΔTm” value was “small variation in ΔTm”.
